Laboratory results: patent US11278682B2, “Device and method for aerosolized delivery of substance to a natural orifice of the body” (SIPNOSE LTD., priority 2014, dated 2022)
Several values for one entry are separate records, joined by “and”; a condition that tells them apart may be missing. Equal entries are not always repeated.

Legend:
[1] = system: Pentylenetetrazol (PTZ)-induced epileptic seizures in rats; assay: Brain concentration of Midazolam vs convulsion score in PTZ-induced seizures; format: in vivo, rat; details: 60 minutes after administration
Description: Epileptic seizures were induced in rats by administration of Pentylenetetrazol (PTZ) and the severity of the seizures was measured 60 minutes after administration of Mizadolam. Doses of Mizadolam varied from zero to 6 mg/kg with SipNose nasal delivery device and with an I/V administration. Brain concentrations of Midazolam were measured and a correlation between brain concentration and convulsions score is shown in FIG. 81. Brain concentrations varied from zero to 130 ng/gr brain tissue. Black squares represent the I/V administrated animals and black dots represent the SipNose administrated animals.

[2] = system: patient suffering from epileptic seizures (SE); assay: Anti-epileptic treatment of status epilepticus with Midazolam, EEG recordings (case study); format: in vivo, human; details: 2 mg Midazolam via SipNose, nasal
Description: Case study of a patient, suffering from epileptic seizures (SE) was treated with a dose of 2 mg Midazolam with sipNose delivery device to deliver Midazolam via the nasal cavity.
Administration of Midazolam was done by administrating of […] of Midazolam to each nostril in a carrier volume of 1 ml. EEG recordings were measured before (FIGS. 82A and 82B) and 3 minutes following to the nasal administration of the drug with SipNose device.

patients [3] = assay: Midazolam pre-medication sedation (BIS EEG monitoring), 1.4 mg, SipNose vs MAD Nasal atomizer; format: in vivo, human; details: for Positive Sedation / Adverse events / Level of minimum BIS / Onset time: individual patients 1 and 2
Description: Comparison with MAD (using a 1 mg/ml solution): For a pre-medication procedure with MAD atomizer, in order to achieve the desired dose of 1.4 mg Midazolam, the delivery device was delivered to one nostril and an aliquot of Midazolam within a volume of 1.4 ml was delivered. For SipNose device delivery the Midazolam was delivered in 2 separate aliquots of 0.7 ml, one to each nostril.
In order to determine the efficacy of anesthetization a BIS EEG monitoring was used, where the BIS values for brain activity are calculated from the EEG activity. Awake, unsedated individuals typically have BIS values ≥97. Mildly sedated individuals typically have BIS values in the 80's, moderately sedated individuals typically have BIS values in the 70's, while fully sedated individuals typically have BIS values below about 70; BIS values between about 45 and about 60 are commonly used for general anesthesia during the maintenance phase of an operation.
Two comparisons were made between the commercial device and the present, SipNose, device. In the first, 3 mg of Midazolam was administered and the commercial device was a commercial nasal pump (positive displacement), in the second, 1.4 mg of Midazolam was administered and the commercial device was a MAD applicator.
In the second comparison, the total dose of Midazolam was 1.4 mg in a total volume of carrier of 1.4 ml. For the SipNose device, it was administered in two aliquots of 0.7 ml, whereas it was administered in one aliquot for the commercial MAD Nasal atomizer from Wolfe Tory. Midozolam was administered to four patients, two with the SipNose device and two with the commercial MAD device.

patients [4] = assay: Midazolam as pre-anesthetic drug: effectiveness, safety and user compliance, SipNose vs commercial nasal pump; format: in vivo, human; details: for BIS value (minimum after administration): 8 patients
Description: Midazolam was administered as a pre-anesthetic drug as a part of premeditation to subjects that needed to be anesthetized prior to the beginning a surgical procedure. Administration of the pre-anesthetic drug was done intranasally instead of the routine PO/IM (oral/intramuscular) route used by the anesthesiologist from the hospital.
The intranasal administration was given by one of the following medical devices: a SipNose nasal device (FIG. 93A) or a commercial nasal pump (FIG. 93B). A single dose of 1×600 microliter (μl) was given with the SipNose device, while 6×100 μl doses were given with a commercial nasal pump. An exemplary administration for the SipNose device is shown in FIG. 94A, while an exemplary administration for the commercial nasal pump is shown in FIG. 94B.
Eight low-risk patients (American Society of Anesthesiology physical status classification I or II) patients were included in each group. Clinical status of the patients, standard continuous monitoring of vital signs, and continuous bispectral index (BIS) monitoring was ongoing 5 minutes before intranasal administration and 30 minutes after.
The objective data consisted in minimum BIS value obtained after administration and time until minimum BIS. The subjective data consisted in physician feedback, swallowing of the drug appreciated by patient, sleeping score appreciated by physician.
Sedation Score was evaluated by physicians as a behavior tool to determine effectiveness of the dose that was given in each of the nasal administrations. Scoring was done according to the following criteria: 1=not Sleepy (not effective); 2=Sleepy/Calm (intermediate effect); 3=Sleeping (drug was effective).
Patients were asked to score if they felt the drug in their throat and/or felt a bitter taste in the throat after the administration of the drug.
The bitterness and swallowing were graded according to the following scale: 1=No swallowing/No bitter taste; 5=A meaningful amount was swallowed/Strong bitter taste.
The repeated administrations with the nasal pump were given with 30 s intervals between them to allow the drug to be absorbed in the nasal cavity before another dose was given.
The anesthesiologist in charge of the patients was asked to rate the overall experience with intranasal administration of midazolam. (1=very good; 5=Not satisfactory).

[5] = Midazolam pharmacokinetic study, plasma and brain, SipNose vs IV; details: rats
Description: Concentration of Midazolam in the plasma and brain of rats were compared for intranasal administration via the SipNose delivery device and via IV administration. A standard drug formulation (Injectable Midazolam 5 mg/ml, Pfizer/Hospira brand) was used, with no reformulation or adaptation for nasal delivery. Two drug concentrations were used for the intranasal administration, 0.2 mg/kg (dashed line in FIGS. 91 and 92) and 0.6 mg/kg (dot-dash line in FIGS. 91 and 92), compared to the standard of care I/V administration of 0.6 mg/kg (solid line in FIGS. 91 and 92). Concentration was measured 10 times in the 12 hours of the study. For each measurement time, midazolam concentration was measured in the plasma and brain of five animals.

[6] = Dose-response of Midazolam brain concentration; format: in vivo, rat; details: rats; doses about 0.6 to about 6 mg/kg; brain concentration 60 minutes after administration
Description: In this example, doses of Midazolam between about 0.6 mg/kg and about 6 mg/kg were administered to rats and the concentration of Midazolam in the brain was measured 60 minutes after administration.

[7] = commercial MAD Nasal atomizer, 1.4 mg

What does the source list for `Cc1ncc2n1-c1ccc(Cl)cc1C(c1ccccc1F)=NC2` [Midazolam]?
Midazolam brain concentration at which Racine severity reaches zero ([1]; IV administration): about 130 ng/gm; Midazolam brain concentration up to which Racine severity remained at about 1 ([1]; IV administration): about 25 ng/gm; Midazolam brain concentration needed to completely prevent seizures (score=0) ([1]; SipNose administration): ~11 ng/gm; time after administration at which brain activity (EEG) is back to normal [2]: 3 min; sleeping score by observation (patients [3]; SipNose administration, 1.4 mg): 3; Positive Sedation (patients [3]; SipNose device, 1.4 mg in two aliquots of 0.7 ml): Yes; Adverse events (patients [3]; SipNose device, 1.4 mg): No; Level of minimum BIS (patients [3]; SipNose device, 1.4 mg): 84; Onset time (patients [3]; SipNose device, 1.4 mg): 3 min and 5 min; Positive Sedation (patients [3]; commercial MAD Nasal atomizer, 1.4 mg in one aliquot): Limited and No; Adverse events (patients [3]; [7]): No; Level of minimum BIS (patients [3]; [7]): 83 and 92; Onset time (patients [3]; [7]): 20 min and 8 min; sleeping score by observation (average) (patients [3]; commercial device, 1.4 mg): 1.5; patients with Highly Effective sedation (patients [4]; Commercial Nasal Pump): 12.5%; patients with Intermediate Effect of sedation (patients [4]; Commercial Nasal Pump): 50%; patients with sedation Not Effective (patients [4]; Commercial Nasal Pump): 37.5%; patients with Highly Effective sedation (patients [4]; SipNose): 100%; Sedation Score (1 not sleepy, 2 sleepy/calm, 3 sleeping) (patients [4]; SipNose group): 3; BIS value (minimum after administration) (patients [4]; SipNose group, 1×600 μl): 74.50±3.196; adverse events or safety issues (patients [4]; both administration procedures (SipNose and commercial nasal pump)): No adverse events or safety issues were reported; Sedation Score (1 not sleepy, 2 sleepy/calm, 3 sleeping) (patients [4]; commercial pump group): below 2; BIS value (minimum after administration) (patients [4]; commercial pump group, 6×100 μl): 87.25±1.840; pharmacokinetic pattern ([5]; 0.6 mg/kg intranasal via SipNose): very similar to that of standard of care (I/V) administration; absorption into blood and brain ([5]; intranasal via SipNose (0.2 and 0.6 mg/kg) vs I/V 0.6 mg/kg): comparable to that seen for I/V administration; dose-response curve of brain concentration [6]: essentially linear
